Here are results for 2 compounds from patent US9593105B2, “Cyclic amines” (H. Lundbeck A/S, priority 2012, dated 2017).

This assay deals with P2X7 receptor (Homo sapiens (Human), UniProt Q99572). Nature of the assay: P2X7 FLIPR assay (BzATP-stimulated, Fluo-4 fluorescence) in stably transfected 293 HEK cells. It counts as cell-based. As for the experimental part:
This example illustrates representative assays for use in evaluating the test compounds for antagonist activity. Compounds of the present invention were tested in vitro for their ability to act as antagonists to the P2X7 receptor.
Cells were plated to cell density of approximately 15,000 cells/well in 384-well assay plates (50 μl/well) with 1.5% low serum media (DMEM, 1.5% BCS, 1% L-glut (2 mM), 1% P/S).
Cells were plated to cell density of approximately 15,000 cells/well in 384-well assay plates (50 μl/well) with 1.5% low serum media (DMEM, 1.5% FBS, 1% L-glut (2 mM), 10 mM HEPES, 1% P/S). Cells were plated 24 hours prior to assay. Cells expressing human, rat or mouse P2X7 receptor were assayed in the following manner.
Fluo-4 NW dye mix (Molecular Probes, Inc., Eugene, Oreg., USA) was prepared in buffer (see manufacturer's instructions). Cell plates were removed from the 37° C. incubator, the media discarded and then 30 μL of dye was added to each well. Plates were placed in the 37° C., non-CO2 incubator for 30 minutes and then room temperature for 30 minutes.
Compound mixtures (A) were added to assay plates containing cells and placed at room temperature for 30 minutes, then BzATP (B) was added. Fluorescence was read using the Tetra FLIPR® (Molecular Devices, Inc., Sunnyvale, Calif., USA) and IC50 values were calculated by standard methods to determine antagonist activity.

Chain of P2X7 receptor (Q99572 whole entry): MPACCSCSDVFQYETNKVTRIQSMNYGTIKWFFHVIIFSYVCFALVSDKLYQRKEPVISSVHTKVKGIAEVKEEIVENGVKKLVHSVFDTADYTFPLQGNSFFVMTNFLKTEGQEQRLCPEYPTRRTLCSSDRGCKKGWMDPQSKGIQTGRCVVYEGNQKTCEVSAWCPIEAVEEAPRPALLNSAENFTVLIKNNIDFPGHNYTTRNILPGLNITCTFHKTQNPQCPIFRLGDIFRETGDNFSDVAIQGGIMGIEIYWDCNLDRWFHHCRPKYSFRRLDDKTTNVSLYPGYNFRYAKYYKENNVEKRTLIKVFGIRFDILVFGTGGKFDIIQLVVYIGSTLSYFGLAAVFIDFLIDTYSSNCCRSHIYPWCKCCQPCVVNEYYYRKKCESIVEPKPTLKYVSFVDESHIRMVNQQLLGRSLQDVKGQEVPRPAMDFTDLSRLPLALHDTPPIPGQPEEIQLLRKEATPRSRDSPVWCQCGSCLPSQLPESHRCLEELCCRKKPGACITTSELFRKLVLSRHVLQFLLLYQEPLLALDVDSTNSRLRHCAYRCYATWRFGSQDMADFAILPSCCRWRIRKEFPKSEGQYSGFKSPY

For the compound `COc1ccc(C(=O)NCC(c2cnc(C(F)(F)F)nc2)N2CCC(F)(F)CC2)c(Cl)c1` (single isomer, unassigned; (+)) [(+)2-chloro-N-[2-(4,4-difluoro-1-piperidyl)-2-[2-(trifluorom] [(+)2-chloro-4-methoxy-N-(2-(4,4-difluoropiperidin-1-yl)-2-(2-(trifluoromethyl)pyrimidin-5-yl)ethyl)benzamide], the 50% inhibitory concentration (IC50) (usually the concentration that inhibits the measured activity by half) is 4.3 nM.
The compound `O=C(NCC(c1cnc(C2CC2)nc1)N1CCC(F)(F)CC1)c1c(Cl)cccc1Cl` (single isomer, unassigned; (-)) [(−)2,6-dichloro-N-[2-(2-cyclopropylpyrimidin-5-yl)-2-(4,4-di] [(−)2,6-dichloro-N-(2-(2-cyclopropylpyrimidin-5-yl)-2-(4,4-difluoropiperidin-1-yl)ethyl)benzamide] displayed an IC50 of 5.8 nM.
